Laboratory results as given in patent US9351965B2, “Indazole derivatives useful as ERK inhibitors” (Merck Sharp & Dohme Corp., priority 2010, dated 2016).

Each compound was assayed against fully phosphorylated, active Mouse ERK2 protein (Mus musculus (Mouse), UniProt P63085) (assay: Active ERK2 (aERK) IMAP assay). Details: IMAP fluorescence polarization; 30 μM ATP; 30 minute pre-incubation.
Assay type: biochemical
Experimental: 14 μl of kinase buffer (10 mM Tris.HCl pH 7.2, 10 mM MgCl2, 0.01% Tween-20, 1 mM DTT) containing 0.4 ng unphosphorylated Mouse ERK2 protein was added to each well of a black 384-well assay plate. […] DMSO concentration during initial incubation is 6.7%. […] DMSO concentration during ERK activation was 4%. After one hour, reactions were terminated by addition of 60 μl IMAP detections beads in binding buffer (Molecular Devices). Binding was allowed to equilibrate for 30 minutes before reading the plate on an LJL Analyst Fluorescence Polarization plate reader.
Active ERK2 (aERK) Assay:
Activated ERK2 activity was also determined in the IMAP assay format using the procedure outlined above. […] Reactions proceeded for 30 minutes before termination by addition of 60 μl IMAP detection beads in binding buffer. Plates were read as above after 30 minute binding equilibration.

fully phosphorylated, active Mouse ERK2 protein, sequence (P63085 whole entry): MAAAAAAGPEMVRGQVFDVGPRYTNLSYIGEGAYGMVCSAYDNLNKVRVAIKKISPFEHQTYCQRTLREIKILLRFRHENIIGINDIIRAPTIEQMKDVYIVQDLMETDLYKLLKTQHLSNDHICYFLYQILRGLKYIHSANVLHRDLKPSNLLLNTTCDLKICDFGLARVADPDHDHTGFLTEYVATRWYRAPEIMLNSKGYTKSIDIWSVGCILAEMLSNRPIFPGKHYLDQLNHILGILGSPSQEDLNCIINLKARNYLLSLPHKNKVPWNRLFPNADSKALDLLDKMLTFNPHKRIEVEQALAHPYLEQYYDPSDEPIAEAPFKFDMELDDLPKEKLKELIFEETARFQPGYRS

| IC50 | SMILES |
| --- | --- |
| 1000 nM | Cc1cc(-c2n[nH]c3ccc(C(=O)N[C@H]4CCC[C@@](O)(Cn5cc6cc(F)ccc6n5)C4)cc23)ccn1 (relative stereo) [compound 99, N-[trans-3-[(5-fluoro-2H-indazol-2-yl)methyl]-3-hydroxycyclohexyl]-3-(2-methyl-4-pyridinyl)-1H-indazole-5-carboxamide] |
| 469 nM | Cc1cc(-c2n[nH]c3ccc(C(=O)NC4CCCC(Oc5c(C)cccc5C)C4)cc23)ccn1 (centres unmarked) [compound 31, N-[3-(2,6-dimethylphenoxy)cyclohexyl]-3-(2-methyl-4-pyridinyl)-1H-indazole-5-carboxamide] |
| 12.1 nM | Cn1cc2cc(-c3n[nH]c4ccc(C(=O)N[C@@H]5CCC[C@](O)(Cc6c(F)cccc6F)C5)cc34)ccc2n1 [compound 19, N-[3(S)-[(2,6-difluorophenyl)methyl]-3-hydroxy-1(R)-cyclohexyl]-3-(2-methyl-2H-indazol-5-yl)-1H-indazole-5-carboxamide] |
| 2 nM | COc1cccc(F)c1C[C@@]1(O)CCC[C@@H](NC(=O)c2ccc3[nH]nc(-c4ccnc(C)c4)c3c2)C1 [compound 22, N-[3(S)-[(2-fluoro-6-methoxyphenyl)methyl]-3-hydroxy-1(R)-cyclohexyl]-3-(2-methyl-4-pyridinyl)-1H-indazole-5-carboxamide] |
| 17.4 nM | Cc1cc(-c2n[nH]c3ccc(C(=O)NC4CCCC(CN5C(=O)Cc6ccccc65)C4)cc23)ccn1 (centres unmarked) [compound 120, N-[3-[(2,3-dihydro-2-oxo-1H-indol-1-yl)methyl]cyclohexyl]-3-(2-methyl-4-pyridinyl)-1H-indazole-5-carboxamide] |
| 589 nM | Cc1cc(-c2n[nH]c3ccc(C(=O)NC4CCCC(O)(Cc5ccccc5F)C4)cc23)ccn1 (single isomer, unassigned) [compound 1, N-[3-[(2-fluorophenyl)methyl]-3-hydroxycyclo-hexyl]-3-(2-methyl-4-pyridinyl)-1H-indazole-5-carboxamide] |
| 74.6 nM | O=C(NC1CCCC(Cn2cccn2)C1)c1ccc2[nH]nc(-c3ccc4nccn4c3)c2c1 (centres unmarked) [compound 110, 3-imidazo[1,2-a]pyridin-6-yl-N-[3-(1H-pyrazol-1-ylmethyl)cyclohexyl]-1H-indazole-5-carboxamide] |
| 136 nM | Cc1cc(-c2n[nH]c3ccc(C(=O)N[C@@H]4CCC[C@](O)(Cn5c(C)nc6cnccc65)C4)cc23)ccn1 (relative stereo) [compound 76, N-[trans-3-hydroxy-3-[(2-methyl-1H-imidazo[4,5-c]pyridin-1-yl)methyl]cyclohexyl]-3-(2-methyl-4-pyridinyl)-1H-indazole-5-carboxamide] |
| 48.7 nM | O=C(N[C@H]1CCC[C@@](O)(Cc2ccccc2F)C1)c1ccc2[nH]nc(-c3ccc4nccn4c3)c2c1 (relative stereo) [compound 9, N-[trans-3-[(2-fluorophenyl)methyl]-3-hydroxycyclohexyl]-3-imidazo[1,2-a]pyridin-6-yl-1H-indazole-5-carboxamide] |
| 35 nM | Cc1cc(-c2n[nH]c3ccc(C(=O)N[C@@H]4CCC[C@@](O)(Cn5cc6ccccc6n5)C4)cc23)ccn1 (relative stereo) [compound 94, N-[cis-3-hydroxy-3-(2H-indazol-2-ylmethyl)cyclohexyl]-3-(2-methyl-4-pyridinyl)-1H-indazole-5-carboxamide] |
| 113 nM | Cc1cc(-c2n[nH]c3ccc(C(=O)NC4CCCC(Oc5ccccc5F)C4)cc23)ccn1 (single isomer, unassigned) [compound 28, N-[3-(2-fluorophenoxy)cyclohexyl]-3-(2-methyl-4-pyridinyl)-1H-indazole-5-carboxamide] |
| 1000 nM | Cc1cc(-c2n[nH]c3ccc(C(=O)N[C@@H]4CCC[C@](O)(Cn5ncccc5=O)C4)cc23)ccn1 (relative stereo) [compound 83, N-[trans-3-hydroxy-3-[(6-oxo-1(6h)-pyridazinyl)methyl]cyclohex-yl]-3-(2-methyl-4-pyridinyl)-1H-indazole-5-carboxamide] |
| 14.3 nM | Cc1cc(-c2n[nH]c3ccc(C(=O)NC4CCCC(Cn5cc6ccccc6n5)C4)cc23)ccn1 (centres unmarked) [compound 122, N-[3-(2H-indazol-2-ylmethyl)cyclohexyl]-3-(2-methyl-4-pyridinyl)-1H-indazole-5-carboxamide] |
| 37.2 nM | Cc1cc(-c2n[nH]c3ccc(C(=O)NC4CCCC(Cn5c(=O)ccc6ccccc65)C4)cc23)ccn1 (centres unmarked) [compound 121, 3-(2-methyl-4-pyridinyl)-N-[3-[(2-oxo-1(2h)-quinolinyl)methyl]cyclohexyl]-1H-indazole-5-carboxamide] |
| 1000 nM | Cc1nc2ccc(-c3n[nH]c4ccc(C(=O)NC5CCCC(Cn6cc(C#N)c7ccccc76)C5)cc34)cc2s1 (centres unmarked) [compound 112, N-[3-[(3-cyano-1H-indol-1-yl)methyl]cyclohexyl]-3-(2-methyl-6-benzothiazolyl)-1H-indazole-5-carboxamide] |
| 106 nM | Cc1cc(-c2n[nH]c3ccc(C(=O)NC4CCCC(O)(C(F)(F)c5ccccc5)C4)cc23)ccn1 (centres unmarked) [compound 48, N-[3-(difluorophenylmethyl)-3-hydroxycyclohexyl]-3-(2-methyl-4-pyridinyl)-1H-indazole-5-carboxamide] |
| 67.4 nM | Cn1cc2cc(-c3n[nH]c4ccc(C(=O)N[C@@H]5CCC[C@](O)(Cn6cccn6)C5)cc34)ccc2n1 (relative stereo) [compound 59, N-[trans-3-hydroxy-3-(1H-pyrazol-1-ylmethyl)cyclohexyl]-3-(2-methyl-2H-indazol-5-yl)-1H-indazole-5-carboxamide] |
| 53 nM | Cc1cc(-c2n[nH]c3ccc(C(=O)N[C@H]4CCC[C@@](O)(Cn5c(C)nc6ccccc65)C4)cc23)ccn1 [compound 69, N-[trans-3-hydroxy-3-[(2-methyl-1H-benzimidazol-1-yl)methyl]cyclohexyl]-3-(2-methyl-4-pyridinyl)-H-indazole-5-carboxamide] |
| 29.3 nM | Cn1cc2cc(-c3n[nH]c4ccc(C(=O)NC5CCCC(Cn6ccnc6)C5)cc34)ccc2n1 (centres unmarked) [compound 108, N-[3-(1H-imidazol-1-ylmethyl)cyclohexyl]-3-(2-methyl-2H-indazol-5-yl)-1H-indazole-5-carboxamide] |
| 64.4 nM | Cc1cc(-c2n[nH]c3ccc(C(=O)NC4CCC(CO)(Cc5ccccc5F)C4)cc23)ccn1 (centres unmarked) [compound 139, N-[3-[(2-fluorophenyl)methyl]-3-(hydroxymethyl)cyclopentyl]-3-(2-methyl-4-pyridinyl)-1H-indazole-5-carboxamide] |
| 47.5 nM | Cc1cc(-c2n[nH]c3ccc(C(=O)NC4CCCC(O)(C(O)c5ccccc5)C4)cc23)ccn1 (centres unmarked) [compound 50, N-[3-hydroxy-3-(hydroxyphenylmethyl)cyclohex-yl]-3-(2-methyl-4-pyridinyl)-1H-indazole-5-carboxamide (diasterimer 2)] |
| 357 nM | Cc1cc(-c2n[nH]c3ccc(C(=O)NC4CCCC(CO)(Cc5ccc(F)cc5)C4)cc23)ccn1 (centres unmarked) [compound 135, N-[3-[(4-fluorophenyl)methyl]-3-(hydroxymethyl)cyclohexyl]-3-(2-methyl-4-pyridinyl)-1H-indazole-5-carboxamide] |
| 44.9 nM | CC(C)Oc1ccc(-c2n[nH]c3ccc(C(=O)N[C@@H]4CCC[C@](O)(Cc5ccccc5F)C4)cc23)cn1 [compound 17, N-[3-(S)-[(2-fluorophenyl)methyl]-3-hydroxy-1(R)-cyclohexyl]-3-[6-(1-methylethoxy)-3-pyridinyl]-1H-indazole-5-carboxamide] |
| 187 nM | Cc1cc(-c2n[nH]c3ccc(C(=O)NC4CCCC(CO)(Oc5cccc(F)c5)C4)cc23)ccn1 (single isomer, unassigned) [compound 45, N-[3-(3-fluorophenoxy)-3-(hydroxymethyl)cyclohexyl]-3-(2-methyl-4-pyridinyl)-1H-indazole-5-carboxamide] |
| 99.9 nM | Cc1cc(-c2n[nH]c3ccc(C(=O)N[C@@H]4CCC[C@@](O)(Cn5cncn5)C4)cc23)ccn1 (relative stereo) [compound 64, N-[cis-3-hydroxy-3-(1H-1,2,4-triazol-1-ylmethyl)cyclohexyl]-3-(2-methyl-4-pyridinyl)-1H-indazole-5-carboxamide] |
| 8.6 nM | Cc1cc(-c2n[nH]c3ccc(C(=O)N[C@@H]4CCC[C@@](O)(Cn5ncc6cccnc65)C4)cc23)ccn1 (relative stereo) [compound 79, N-[cis-3-hydroxy-3-(1H-pyrazolo[3,4-b]pyridin-1-ylmethyl)cyclohexyl]-3-(2-methyl-4-pyridinyl)-1H-indazole-5-carboxamide] |
| 10.8 nM | Cc1cc(-c2n[nH]c3ccc(C(=O)N[C@@H]4CCC[C@@](O)(CN5C(=O)Cc6ccccc65)C4)cc23)ccn1 (relative stereo) [compound 92, N-[cis-3-[(2,3-dihydro-2-oxo-1H-indol-1-yl)methyl]-3-hydroxycyclohexyl]-3-(2-methyl-4-pyridinyl)-1H-indazole-5-carboxamide] |
| 98.9 nM | Cc1cc(-c2n[nH]c3ccc(C(=O)NC4CCCC(CO)(Oc5ccccc5)C4)cc23)ccn1 (centres unmarked) [compound 41, N-[3-(hydroxymethyl)-3-phenoxycyclohexyl]-3-(2-methyl-4-pyridinyl)-1H-indazole-5-carboxamide] |
| 1000 nM | Cc1cc(-c2n[nH]c3ccc(C(=O)N[C@H]4CCC[C@@](O)(Cn5ncc6ccc(F)cc65)C4)cc23)ccn1 (relative stereo) [compound 100, N-[trans-3-[(6-fluoro-1H-indazol-1-yl)methyl]-3-hydroxycyclohexyl]-3-(2-methyl-4-pyridinyl)-1H-indazole-5-carboxamide] |
